# Laboratory results taken from ChEMBL document CHEMBL1201862, “PubChem BioAssay data set” (2004).
#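 The compound was tested at five concentrations on cells cultured in 96-well plates, with a 48-hour exposure period. The concentration for 50% growth inhibition is given as GI50.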 Active and inactive are the calls of the source. Rule as the data show it: active = GI50 up to about 1.1 µM and inactive = higher.
# Tests used:
# Test in all cases: inhibition of tumour cell growth, NCI panel, 48 h
# UACC-257 = test system: UACC-257
# SK-MEL-5 = test system: SK-MEL-5
# EKVX = test system: EKVX
# HCT-116 = test system: HCT-116
# SF-268 = test system: SF-268
# CCRF-CEM = test system: CCRF-CEM
# DU-145 = test system: DU-145
# Hs-578T = test system: Hs-578T
# DMS-273 = test system: DMS-273
# XF498 = test system: XF498
# U-251 = test system: U-251
# NCI-H460 = test system: NCI-H460
# IGROV-1 = test system: IGROV-1
# HOP-18 = test system: HOP-18
# RXF 393 = test system: RXF 393
# BT-549 = test system: BT-549
# MCF7 = test system: MCF7
# SR = test system: SR
# MOLT-4 = test system: MOLT-4
# HCT-15 = test system: HCT-15
# KM-20L2 = test system: KM-20L2
# SNB-19 = test system: SNB-19
# LXFL 529 = test system: LXFL 529
# KM12 = test system: KM12
# OVCAR-3 = test system: OVCAR-3
# PC-3 = test system: PC-3
# OVCAR-8 = test system: OVCAR-8
# HT-29 = test system: HT-29
# RPMI-8226 = test system: RPMI-8226
# DLD-1 = test system: DLD-1
# A549 = test system: A549
# SN12C = test system: SN12C
# SF-295 = test system: SF-295
# MDA-MB-231 = test system: MDA-MB-231
# UO-31 = test system: UO-31
# HCC 2998 = test system: HCC 2998
# UACC-62 = test system: UACC-62
# K562 = test system: K562
# CAKI-1 = test system: CAKI-1
# SK-MEL-28 = test system: SK-MEL-28
# SF-539 = test system: SF-539
# TK-10 = test system: TK-10
# COLO 205 = test system: COLO 205
# HL-60 = test system: HL-60
# NCI/ADR-RES = test system: NCI/ADR-RES
# DMS-114 = test system: DMS-114
# Malme-3M = test system: Malme-3M
# M14 = test system: M14
# NCI-H23 = test system: NCI-H23
# SNB-75 = test system: SNB-75
# ACHN = test system: ACHN
# OVCAR-4 = test system: OVCAR-4
# MDA-MB-435 = test system: MDA-MB-435
# HOP-62 = test system: HOP-62
# NCI-H522 = test system: NCI-H522
# SNB-78 = test system: SNB-78
# LOX IMVI = test system: LOX IMVI
# MDA-N = test system: MDA-N
# OVCAR-5 = test system: OVCAR-5
# SK-OV-3 = test system: SK-OV-3
# SK-MEL-2 = test system: SK-MEL-2
# 786-0 = test system: 786-0
# HOP-92 = test system: HOP-92
# SW-620 = test system: SW-620
# M19-MEL = test system: M19-MEL
# T47D = test system: T47D
# NCI-H226 = test system: NCI-H226
smiles,measurement,setting,value
COc1cc(/C=C/c2ccc(C)cc2)cc(OC)c1OC,GI50,UACC-257,6.97 µM (inactive)
same,GI50,SK-MEL-5,3.85 µM (inactive)
same,GI50,EKVX,4.7 µM (inactive)
same,GI50,HCT-116,3.3 µM (inactive)
same,GI50,SF-268,5.37 µM (inactive)
same,GI50,CCRF-CEM,3.45 µM (inactive)
same,GI50,DU-145,3.01 µM (inactive)
same,GI50,Hs-578T,2.56 µM (inactive)
same,GI50,DMS-273,3.79 µM (inactive)
same,GI50,XF498,6.49 µM (inactive)
same,GI50,U-251,3.78 µM (inactive)
same,GI50,NCI-H460,3.85 µM (inactive)
same,GI50,IGROV-1,5.11 µM (inactive)
same,GI50,HOP-18,11.4 µM (inactive)
same,GI50,RXF 393,4.42 µM (inactive)
same,GI50,BT-549,5.68 µM (inactive)
same,GI50,MCF7,3.46 µM (inactive)
same,GI50,SR,2.52 µM (inactive)
same,GI50,MOLT-4,3.91 µM (inactive)
same,GI50,HCT-15,4.08 µM
same,GI50,KM-20L2,2.09 µM (inactive)
same,GI50,SNB-19,4.21 µM (inactive)
same,GI50,LXFL 529,5.58 µM (inactive)
same,GI50,KM12,3.66 µM (inactive)
same,GI50,OVCAR-3,2.48 µM (inactive)
same,GI50,PC-3,2.67 µM (inactive)
same,GI50,OVCAR-8,4.43 µM (inactive)
same,GI50,HT-29,2.69 µM (inactive)
same,GI50,RPMI-8226,3.8 µM (inactive)
same,GI50,DLD-1,4.06 µM (inactive)
same,GI50,A549,4.27 µM (inactive)
same,GI50,SN12C,4.57 µM (inactive)
same,GI50,SF-295,2.54 µM (inactive)
same,GI50,MDA-MB-231,5 µM (inactive)
same,GI50,UO-31,4.49 µM (inactive)
same,GI50,HCC 2998,4.82 µM (inactive)
same,GI50,UACC-62,3.44 µM (inactive)
same,GI50,K562,3.1 µM (inactive)
same,GI50,CAKI-1,5.9 µM (inactive)
same,GI50,SK-MEL-28,5.77 µM (inactive)
same,GI50,SF-539,2.42 µM (inactive)
same,GI50,TK-10,7.69 µM (inactive)
same,GI50,COLO 205,3.16 µM (inactive)
same,GI50,HL-60,2.97 µM (inactive)
same,GI50,NCI/ADR-RES,2.07 µM (inactive)
same,GI50,DMS-114,5.9 µM (inactive)
same,GI50,Malme-3M,4.35 µM (inactive)
same,GI50,M14,3.56 µM (inactive)
same,GI50,NCI-H23,2.9 µM (inactive)
same,GI50,SNB-75,2.58 µM (inactive)
same,GI50,ACHN,6.31 µM (inactive)
same,GI50,OVCAR-4,17.3 µM (inactive)
same,GI50,MDA-MB-435,1.14 µM (inactive)
same,GI50,HOP-62,4.18 µM (inactive)
same,GI50,NCI-H522,2.25 µM (inactive)
same,GI50,SNB-78,2.14 µM (inactive)
same,GI50,LOX IMVI,6.14 µM (inactive)
same,GI50,MDA-N,0.895 µM (active)
same,GI50,OVCAR-5,12.7 µM (inactive)
same,GI50,SK-OV-3,6.84 µM (inactive)
same,GI50,SK-MEL-2,7.18 µM (inactive)
same,GI50,786-0,3.87 µM (inactive)
same,GI50,HOP-92,9.33 µM (inactive)
same,GI50,SW-620,4.29 µM (inactive)
same,GI50,M19-MEL,9.98 µM (inactive)
same,GI50,T47D,4.1 µM (inactive)
same,GI50,NCI-H226,4.29 µM (inactive)
